# Values of other authors, collected in US6683065B1, “Method of treating body insect infestation” (Host Pharmaceuticals LLC, priority 1999, dated 2004).
# Settings: at 20° C.
row,Substance,Surface Tension
1,n-fluoroalkanes,25.9^1 dynes/cm
2,n-alkanes,37.8^1 dynes/cm
